For one assay, the system named is K.P. A-1797 KPC-2 VIM-4. In words: broth microdilution MIC, K. pneumoniae KPC-2 and VIM-4. It is filed as cell-based. To be noted: Fixed Mero 4 μg/mL. The source says: (§1) To determine the ability of test compounds to potentiate the inhibition of the growth of bacterial strains that produce beta-lactamase enzymes, classic cell based broth microdilution MIC assays were employed. Six bacteria strains producing beta-lactamase enzymes were used: E. coli expressing the Class A Extended Spectrum Beta-Lactamase (ESBL) CTX-M-15, E. cloacae expressing the Class C P99, K. pneumoniae expressing the Class A carbapenemase KPC-3, P. aeruginosa expressing the Class B carbapenemase VIM-2, K. pneumoniae expressing the class A carbapenemase KPC-2 and the class B carbapenemase VIM-4, and S. aureus producing the Class A penicillinase PC-1. The assay was conducted in Cation Adjusted Mueller Hinton Broth (CAMHB, BD #212322, BD Diagnostic Systems, Sparks, Md.). Bacteria strains were grown for 3-5 hours in CAMBH broth. Test compounds were added to a microtiter plate in 2-fold serial dilutions in CAMHB in a final concentration range of 32 μg/mL to 0.25 μg/ml. An overlay of CAMHB containing a Beta-lactam was added to the compounds at a final static concentration of 4 μg/ml. […] In addition to the titration of test compounds the MICs of a panel of control beta-lactams is also tested to ensure the strains are behaving consistently from test to test. Once the test compound and antibiotics are added the plates can be inoculated according to CLSI broth microdilution method. After inoculation the plates are incubated for 16-20 hours at 37° C. then the Minimal Inhibitory Concentration (MIC) of the test compound is determined visually.
(§2) Using the methodology described above in EXAMPLE III, exemplary compounds for Formula I or Formula Ia were evaluated for their ability to inhibit the growth of β-lactamase producing bacteria in the presence of a β-lactam antibiotic. […]
A general note: In broth dilution the organism is exposed to a series of concentrations in liquid medium.

Another assay concerns P. aerug. Ps296 VIM-2. In words: broth microdilution MIC, P. aeruginosa VIM-2. It counts as cell-based. To be noted: Fixed Mero 4 μg/mL.
From the text: as §1
Using the methodology described above in EXAMPLE III, exemplary compounds for Formula I or Formula Ia were evaluated for their ability to inhibit the growth of β-lactamase producing bacteria in the presence of a β-lactam antibiotic.
Representative results are shown in Table 4 where A represents an MIC of the fixed β-lactam antibiotic in the presence of >32 μg/mL of a β-lactamase inhibitor of exemplary compounds, B represents the MIC in the presence of between 8 and 32 μg/mL of a β-lactamase inhibitor of exemplary compounds, and C represents the MIC in the presence of ≦4 μg/mL of a β-lactamase inhibitor of exemplary compounds. NT=Not Tested.

Another assay deals with T1, p99 AmpC (Enterobacter cloacae, UniProt P05364).
T1 construct: made in house; host or cells: E. coli BL21(DE3)
In words: β-lactamase enzyme inhibition, p99 AmpC. To be noted: substrate Nitrocefin 100 μM, 486 nm; read-out: Class C AmpC IC50. It counts as biochemical. The essentials:
(§3)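 Native untagged β-lactamases expressed in E. coli BL21(DE3) and purified, then pre-incubated with inhibitor 15 min at 37 °C. Hydrolysis was followed by absorbance: 100 μM nitrocefin at 486 nm for p99 AmpC and OXA-1; imipenem at 300 nm for KPC-2; cefotaxime at 260 nm for SHV-5. IC50 from initial-rate inhibition versus uninhibited controls.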

A further assay addresses T2, KPC-2 (Klebsiella pneumoniae, UniProt Q9F663).
T2 construct: made in house; host or cells: E. coli BL21(DE3)
In words: β-lactamase enzyme inhibition, KPC-2. Particulars: substrate imipenem, 300 nm; read-out: Class A KPC-2 IC50. It counts as biochemical. The essentials: as §3

The target in another assay is T3, OXA-1 (Escherichia coli, UniProt P13661).
T3 construct: made in house; host or cells: E. coli BL21(DE3)
In words: β-lactamase enzyme inhibition, OXA-1. It is filed as biochemical. Particulars: substrate Nitrocefin 100 μM, 486 nm; read-out: Class D OXA-1 IC50. The essentials:
as §3

The next assay concerns E. cl. 144200 p99 AmpC. In words: broth microdilution MIC, E. cloacae P99. It counts as cell-based. Particulars: Fixed CAZ 4 μg/mL.
From the text: as §1, §2

A further assay has as its system K.P. 156319 KPC-3. In words: broth microdilution MIC, K. pneumoniae KPC-3. It counts as cell-based. To be noted: Fixed Mero 4 μg/mL.
From the text: as §1, §2

The next assay deals with E. coli ESBL4 CTX-M-15. In words: broth microdilution MIC, E. coli CTX-M-15. To be noted: Fixed CAZ 4 μg/mL. It counts as cell-based.
From the text: as §1, §2

Another assay concerns the target T4, VIM-2 (Escherichia coli, UniProt Q5U7L7).
T4 construct: made in house; host or cells: E. coli BL21(DE3)
In words: β-lactamase enzyme inhibition, VIM-2. It counts as biochemical. To be noted: substrate Nitrocefin 100 μM, 486 nm; read-out: Class B VIM-2 IC50. The gist of the method: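 Purified VIM-2 (Q sepharose, 50 mM Hepes pH 7.5, >90% purity) preincubated with inhibitor 15 min at 37° C, then nitrocefin added at 100 μM final. Hydrolysis followed at 486 nm for 10 min; IC50 from initial rates versus inhibitor-free control wells.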

The target in another assay is T5, SHV-5 (Klebsiella pneumoniae, UniProt P0A3M1).
T5 construct: made in house; host or cells: E. coli BL21(DE3)
In words: β-lactamase enzyme inhibition, SHV-5. It is filed as biochemical. Particulars: substrate Cefotaxime, 260 nm; read-out: Class A SHV-5 IC50. The essentials:
as §3

This is an account of results in patent publication US8912169B2, “Beta-lactamase inhibitors” (VenatoRx Pharmaceuticals, Inc., priority 2012, dated 2014).

Some results are limits rather than exact numbers.

In general, IC50 refers to the concentration needed to halve the response being measured. “(3R)-3-[[2-[(1S,3S,4S)-3,4-bis(aminomethyl)cyclohexyl]acetyl]amino]-2-hydroxy-3,4-dihydro-1,2-benzoxaborinine-8-carboxylic acid and (3R)-3-[[2-[(1R,3R,4R)-3,4-bis(aminomethyl)cyclohexyl]acetyl]amino]-2-hydroxy-3,4-dihydro-1,2-benzoxaborinine-8-carboxylic acid [Example 18]”: in the assay on K.P. A-1797 KPC-2 VIM-4, the “MIC of exemplary compounds in presence of fixed β-lactams, K.P. A-1797 KPC-2 VIM-4” value (“MIC … K.P. A-1797 KPC-2 VIM-4” for short) was “B (B represents the MIC in the presence of between 8 and 32 μg/mL of a β-lactamase inhibitor of exemplary compounds)”. For the same substance, in the assay on P. aerug. Ps296 VIM-2, the “MIC of exemplary compounds in presence of fixed β-lactams, P. aerug. Ps296 VIM-2” value (“MIC … P. aerug. Ps296 VIM-2” below) was “C (C represents the MIC in the presence of ≦4 μg/mL of a β-lactamase inhibitor of exemplary compounds)”. In addition, the IC50 on p99 AmpC, on KPC-2, on OXA-1, on VIM-2 and at SHV-5 was under 100 nM in each case. The “MIC of exemplary compounds in presence of fixed β-lactams, E. cl. 144200 p99 AmpC” value (“MIC … E. cl. 144200 p99 AmpC” for short) in the assay with E. cl. 144200 p99 AmpC is on record as “C (C represents the MIC in the presence of ≦4 μg/mL of a β-lactamase inhibitor of exemplary compounds)”. In addition, the “MIC of exemplary compounds in presence of fixed β-lactams, K.P. 156319 KPC-3” value (shortened to “MIC of exemplary compounds … K.P. 156319 KPC-3”) with K.P. 156319 KPC-3 was “C (C represents the MIC in the presence of ≦4 μg/mL of a β-lactamase inhibitor of exemplary compounds)”. In addition, the “MIC of exemplary compounds in presence of fixed β-lactams, E. coli ESBL4 CTX-M-15” value (“MIC … E. coli ESBL4 CTX-M-15” below) in the assay on E. coli ESBL4 CTX-M-15 is given as “C (C represents the MIC in the presence of ≦4 μg/mL of a β-lactamase inhibitor of exemplary compounds)”.
With “(3R)-3-[[(1S,3S,4S)-3,4-diaminocyclohexanecarbonyl]amino]-2-hydroxy-3,4-dihydro-1,2-benzoxaborinine-8-carboxylic acid and (3R)-3-[[(1R,3R,4R)-3,4-diaminocyclohexanecarbonyl]amino]-2-hydroxy-3,4-dihydro-1,2-benzoxaborinine-8-carboxylic acid [Example 20]”, the “MIC … K.P. A-1797 KPC-2 VIM-4” value in the assay with K.P. A-1797 KPC-2 VIM-4 is “B (B represents the MIC in the presence of between 8 and 32 μg/mL of a β-lactamase inhibitor of exemplary compounds)”. Besides, the “MIC … P. aerug. Ps296 VIM-2” value with P. aerug. Ps296 VIM-2 was “C (C represents the MIC in the presence of ≦4 μg/mL of a β-lactamase inhibitor of exemplary compounds)”. For the same substance, the IC50 at p99 AmpC was under 100 nM; on KPC-2, 100 to 1000 nM; on OXA-1, 100 to 1000 nM; at VIM-2, under 100 nM; on SHV-5, 1000 to 10000 nM. Moreover, the “MIC … E. cl. 144200 p99 AmpC” value in the assay on E. cl. 144200 p99 AmpC is given as “C (C represents the MIC in the presence of ≦4 μg/mL of a β-lactamase inhibitor of exemplary compounds)”. In addition, the “MIC of exemplary compounds … K.P. 156319 KPC-3” value in the assay on K.P. 156319 KPC-3 is listed as “C (C represents the MIC in the presence of ≦4 μg/mL of a β-lactamase inhibitor of exemplary compounds)”. Also, the “MIC … E. coli ESBL4 CTX-M-15” value in the assay with E. coli ESBL4 CTX-M-15 is reported as “C (C represents the MIC in the presence of ≦4 μg/mL of a β-lactamase inhibitor of exemplary compounds)”.
As to “(3R)-3-[[(3S,4S)-3,4-diaminocyclopentanecarbonyl]amino]-2-hydroxy-3,4-dihydro-1,2-benzoxaborinine-8-carboxylic acid and (3R)-3-[[(3R,4R)-3,4-diaminocyclopentanecarbonyl]amino]-2-hydroxy-3,4-dihydro-1,2-benzoxaborinine-8-carboxylic acid [Example 19]”, in the assay with K.P. A-1797 KPC-2 VIM-4, the “MIC … K.P. A-1797 KPC-2 VIM-4” value is “C (C represents the MIC in the presence of ≦4 μg/mL of a β-lactamase inhibitor of exemplary compounds)”. In addition, the “MIC … P. aerug. Ps296 VIM-2” value with P. aerug. Ps296 VIM-2 is listed as “C (C represents the MIC in the presence of ≦4 μg/mL of a β-lactamase inhibitor of exemplary compounds)”. Further, the IC50 at p99 AmpC is under 100 nM; on KPC-2, under 100 nM; at OXA-1 it was under 100 nM; at VIM-2, under 100 nM; on SHV-5 it was 100 to 1000 nM. Further, the “MIC … E. cl. 144200 p99 AmpC” value in the assay with E. cl. 144200 p99 AmpC is on record as “C (C represents the MIC in the presence of ≦4 μg/mL of a β-lactamase inhibitor of exemplary compounds)”. Further, in the assay on K.P. 156319 KPC-3, the “MIC of exemplary compounds … K.P. 156319 KPC-3” value is “C (C represents the MIC in the presence of ≦4 μg/mL of a β-lactamase inhibitor of exemplary compounds)”. The “MIC … E. coli ESBL4 CTX-M-15” value in the assay with E. coli ESBL4 CTX-M-15 is “C (C represents the MIC in the presence of ≦4 μg/mL of a β-lactamase inhibitor of exemplary compounds)”.
